Test results taken from patent publication US20120070486A1, “METHODS AND COMPOSITIONS RELATED TO PREFOLDIN AND ITS REGULATION” (priority 2007, published 2012).

How the values were obtained:
HeyA8-MDR cell line = assay: docetaxel IC50 in chemoresistant HeyA8-MDR cell line; type: cell-based; conditions: Homo sapiens
SKOV3-TR cell line = assay: docetaxel IC50 in chemoresistant SKOV3-TR cell line; type: cell-based; conditions: Homo sapiens, SKOV3TR
SKOV3 cell line = assay: docetaxel IC50 in chemosensitive parental SKOV3 cell line; type: cell-based; conditions: Homo sapiens, SK-OV-3, one range printed for HeyA8 and SKOV3
HeyA8 cell line = assay: docetaxel IC50 in chemosensitive parental HeyA8 cell line; type: cell-based; conditions: Homo sapiens, HEY A8, one range printed for HeyA8 and SKOV3
[1] = system: microtubule cytoskeleton of SKOV3 cells; assay: indirect immunofluorescent staining for α-tubulin of the microtubule cytoskeleton after siRNA transfection; type: cell-based, human; conditions: 48 hours following transfection, fluorescent microscopy, compared to control siRNA
Method: RNA interference: PFDN4 siRNA (sense: […] (SEQ ID NO:6); antisense: […] (SEQ ID NO:7)) and AllStars Negative Control siRNA were purchased from Qiagen (Valencia, Calif.). HeyA8 and SKOV3 were grown to 50% confluence prior to transfection with control or PFDN4 siRNA using Lipofectamine 2000 (Invitrogen, Valencia, Calif.) following manufacturer's instruction. Cells were typically harvested for analysis 48-72 hours following transfection. Immunofluorescent staining HeyA8 and SKOV3 cells were grown on glass coverslips in 24-well plates for 24 hours prior to transfection with either control or PFDN4 siRNA, and cultured for an additional 48 hours. Media was then aspirated and replaced with 0.5 mL of 4% paraformaldehyde for 30 minutes. Cells were then incubated with 100 mM glycine for 5 minutes, washed once with PBS and then incubated with 0.2% TritonX-100 in PBS for 10 minutes. Coverslips were washed thrice in PBS and then blocked for 30 minutes in 10% goat serum in PBS. Coverslips were then incubated with a 1:2000 dilution of anti-α-tubulin antibodies for 1.5 hours at room temperature. Slides were washed three times with PBS and then incubated for 1 hour with Alexa 555-labelled anti-rabbit secondary antibodies. Coverslips were washed twice with PBS and finally mounted in anti-fade mounting media and then visualized by fluorescence microscopy. […]

PFDN4 mRNA = assay: RT-PCR screen of siRNA mediated gene silencing of PFDN4 in SKOV3 cells; type: cell-based, human
Method: RT-PCR: RT-PCR RNA was extracted from ovarian cancer cell lines using TRIzo10 (Invitrogen, Carlsbad, Calif.) as per manufacturer's instructions. 2 μg of total mRNA was reverse transcribed using the Superscript first strand kit (Superscript, Invitrogen, Carlsbad, Calif.), and 2 μL from each reaction was subjected to PCR using standard techniques. PFDN4 primers generated a 413 by product (PFDN4 forward: […] (SEQ ID NO:1); PFDN4 reverse: […] (SEQ ID NO:2)). GAPDH primers generated an approximately 800 by product (GAPDH forward:[…] (SEQ ID NO:3); GAPDH reverse: […] (SEQ ID NO:4)). Semi-quantitative cycling conditions were optimized to the following program: 98° C. for 2 minutes followed by 22 cycles at 95° C. for 30 seconds, 55° C. for 30 seconds and 72° C. for 60 seconds, followed by a final cycle at 72° C. for 5 minutes. PCR products were visualized by agarose gel electrophoresis.
RNA interference: PFDN4 siRNA (sense: […] (SEQ ID NO:6); antisense: […] (SEQ ID NO:7)) and AllStars Negative Control siRNA were purchased from Qiagen (Valencia, Calif.). HeyA8 and SKOV3 were grown to 50% confluence prior to transfection with control or PFDN4 siRNA using Lipofectamine 2000 (Invitrogen, Valencia, Calif.) following manufacturer's instruction. […] Coverslips were washed twice with PBS and finally mounted in anti-fade mounting media and then visualized by fluorescence microscopy. […]

PFDN4 protein = assay: siRNA mediated silencing of PFDN4 protein expression in SKOV3 cells (western blot); type: cell-based, human; conditions: in vitro, by 48 hours
Method: Immunoprecipitation and Western Blot Analysis: Each 10 cm plate of cells was lysed in 1 mL NP-40 lysis buffer (50 mM Hepes, pH 7.25, 150 mM NaCl, […], 50 mM NaF, 2 mM EDTA, 1 mM sodium orthovanadate, 1% NP-40), supplemented with Roche complete protease inhibitors (Roche Diagnostics, Indianapolis, Ind.). Cell lysates were cleared by centrifugation at 14000 g for 15 minutes at 4° C. Protein concentration was determined using the BCA Protein Assay (Pierce Biotechnology, Rockford, Ill.). 1 mg total protein lysate was combined with 50 μL of 20% Protein A Sepharose CL4B beads (Amersham Biosciences, Piscataway, N.J.) and 1 μg of anti-PFDN4 antibody. […]
RNA interference: PFDN4 siRNA (sense: […] (SEQ ID NO:6); antisense: […] (SEQ ID NO:7)) and AllStars Negative Control siRNA were purchased from Qiagen (Valencia, Calif.). […] Coverslips were washed twice with PBS and finally mounted in anti-fade mounting media and then visualized by fluorescence microscopy.
To determine the effect of PFDN4 downregulation in ovarian cancer in vitro, the inventors utilized RNA interference (RNAi) technology to silence PFDN4 expression in ovarian cancer cells. […] Using an RT-PCR based screen, the inventors detected a decrease in PFDN4 mRNA within 4 hours following transfection, with greater than 90% silencing observed by 24 hours following transfection (FIG. 5).

IC50 (HeyA8-MDR cell line) [nM]	IC50 (SKOV3-TR cell line) [nM]	Compound	IC50 (SKOV3 cell line) [nM]	IC50 (HeyA8 cell line) [nM]	morphology of microtubule cytoskeleton [1]	time to detected decrease in PFDN4 mRNA following transfection (PFDN4 mRNA) [h]	PFDN4 mRNA silencing (PFDN4 mRNA; by 24 hours following transfection)	down-regulation in PFDN4 protein production (PFDN4 protein)
≥ 250	≥ 250	CC(=O)O[C@@]12CO[C@@H]1C[C@H](O)[C@@]1(C)C(=O)[C@H](O)C3=C(C)[C@@H](OC(=O)[C@H](O)[C@@H](NC(=O)OC(C)(C)C)c4ccccc4)C[C@@](O)([C@@H](OC(=O)c4ccccc4)[C@H]21)C3(C)C [docetaxel]	1 to 6.2	1 to 6.2	–	–	–	–
–	–	PFDN4 siRNA: siRNA, sense UUCAGCGAGUGUUAGCAGATT (SEQ ID NO:6), antisense UCUGCUAACACCGCUGAATT (SEQ ID NO:7), purchased from Qiagen (chemistry not given here)	–	–	less organized (FIG. 7B) and more condensed	≤ 4	greater than 90%	detectable down-regulation
